The values that follow come from PMC4642536, “Structural analysis of fungus-derived FAD glucose dehydrogenase” (Scientific Reports, 2015).

Assay [1] addresses T1, AfGDH (Aspergillus flavus FAD-dependent glucose dehydrogenase, FADGDH) (Aspergillus flavus, UniProt B8MX95).
T1 construct: gene F9C07_464; residues 24-593, secretion signal peptide (1-22) removed; codon-optimised synthetic gene in pET30C, E. coli Origami2 (DE3); nonglycosylated; monomer
T1 sequence (B8MX95 24-593): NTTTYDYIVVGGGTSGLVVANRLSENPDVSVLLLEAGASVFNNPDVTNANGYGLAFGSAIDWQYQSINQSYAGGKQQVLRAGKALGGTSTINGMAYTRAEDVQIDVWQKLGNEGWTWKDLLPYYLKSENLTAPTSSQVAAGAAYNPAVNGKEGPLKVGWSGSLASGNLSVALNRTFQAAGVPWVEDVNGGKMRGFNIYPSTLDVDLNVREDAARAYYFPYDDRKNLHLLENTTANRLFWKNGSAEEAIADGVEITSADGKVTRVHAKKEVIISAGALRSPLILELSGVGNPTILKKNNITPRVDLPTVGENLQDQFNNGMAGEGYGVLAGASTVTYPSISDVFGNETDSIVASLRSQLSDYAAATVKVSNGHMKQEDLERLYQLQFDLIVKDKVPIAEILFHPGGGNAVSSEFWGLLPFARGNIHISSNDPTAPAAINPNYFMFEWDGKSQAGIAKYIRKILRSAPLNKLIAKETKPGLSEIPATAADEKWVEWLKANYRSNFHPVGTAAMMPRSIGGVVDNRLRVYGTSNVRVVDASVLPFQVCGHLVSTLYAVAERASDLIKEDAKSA
As to the kind of experiment: PMS/DCIP reduction, absorbance at […] nm; FAD reduction spectrum. As to conditions: 200 mM D-glucose, 0.6 mM PMS, 0.06 mM DCIP, 10 mM potassium phosphate pH 6.5, 25 °C. It counts as biochemical.

For assay [2], the target named is T1, AfGDH (Aspergillus flavus FAD-dependent glucose dehydrogenase, FADGDH). As to the kind of experiment: X-ray crystal structure, […] Å. Type of assay: binding. As to conditions: co-purified cofactor, refined as reduced form; pH 6.5; also in 4YNU.

Each structure is given as a SMILES string.

As to `OC[C@H]1OC(O)[C@H](O)[C@@H](O)[C@@H]1O` (stereo partly drawn) [D-glucose], the specific activity result in assay [1] is on record as “The addition of glucose to the wild type enzyme resulted in the disappearance of the peaks”.

With `Cc1cc2c(cc1C)N(C[C@H](O)[C@H](O)[C@H](O)COP(=O)(O)OP(=O)(O)OC[C@H]1O[C@@H](n3cnc4c(N)ncnc43)[C@H](O)[C@@H]1O)c1[nH]c(=O)[nH]c(=O)c1N2` [reduced FAD], the “X-ray crystal structure, 1.78 Å” value in assay [2] is recorded as “The bound FAD molecule was refined as a reduced FAD cofactor (FADH2)”.
